Laboratory results: ChEMBL document CHEMBL1201862, “PubChem BioAssay data set” (2004)
Several values for one entry are separate records, joined by “and”; a condition that tells them apart may be missing. Identical values can stand only once. Activity calls are given as the source filed them.

Tests used:
[1] = inhibitors of intracellular T. cruzi replication, confirmation, NIH3T3 host cells, beta-gal luminescence (AID 2044); format: functional, cell-based;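 also: intracellular parasites grown in NIH/3T3 mouse fibroblasts as host cells; luminescent beta-galactosidase reporter signal from transgenic T. cruzi replicating inside host cells; inhibitors lower the luminescence signal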
[2] = cytotoxicity toward NIH3T3 fibroblasts, dose response, counter-screen, cell-based, ATP luminescence, mouse fibroblasts (AID 2010); format: functional;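 also: cells exposed to compound for about 90 hours before reading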
Cytochrome P450 3A4 = Cytochrome P450 3A4 (Homo sapiens, UniProt P08684);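 also: CYP3A4 tested as one member of a cytochrome P450 panel screen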
[3] = target: T1, Heat shock factor protein 1 (Mus musculus, UniProt P38532); test: inhibition of MG132-induced HSE-luciferase signal, confirmation, cell-based, NIH3T3, luminescence, dose retest (AID 2382); format: functional;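 also: NIH3T3 fibroblasts with HSF1-driven luciferase reporter stressed by proteasome inhibitor MG132; luminescence from HSF1-driven luciferase expression after 8 hours of MG132 stress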
T1 sequence (P38532 whole entry): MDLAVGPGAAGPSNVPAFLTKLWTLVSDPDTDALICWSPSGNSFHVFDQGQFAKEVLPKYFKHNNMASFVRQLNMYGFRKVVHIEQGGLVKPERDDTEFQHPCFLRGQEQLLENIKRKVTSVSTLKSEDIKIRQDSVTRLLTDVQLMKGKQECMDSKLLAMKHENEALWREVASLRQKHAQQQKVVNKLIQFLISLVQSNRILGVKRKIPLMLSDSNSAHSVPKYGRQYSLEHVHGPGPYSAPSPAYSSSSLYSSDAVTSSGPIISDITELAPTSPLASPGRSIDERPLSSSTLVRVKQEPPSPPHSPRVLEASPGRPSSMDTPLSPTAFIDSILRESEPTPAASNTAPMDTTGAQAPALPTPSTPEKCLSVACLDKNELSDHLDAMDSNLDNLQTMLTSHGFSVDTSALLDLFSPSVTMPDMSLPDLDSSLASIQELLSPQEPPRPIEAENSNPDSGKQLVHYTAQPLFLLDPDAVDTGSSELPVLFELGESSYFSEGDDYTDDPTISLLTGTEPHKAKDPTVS

Cytochrome P450 2C19 = Cytochrome P450 2C19 (Homo sapiens, UniProt P33261); test: Cytochrome panel assay with activity outcomes. Panel member name: p450-cyp2c19 Compounds with AC50 equal or less than 10 uM are considered active; format: functional; conditions: read-out: AC50
[4] = tested on: Streptococcus sp. 'group A'; test: growth inhibition of control SK(-) GAS strain, dose response, counter-screen for streptokinase expression inhibitor project, luminescence, kanamycin, BacTiterGlo, confirmation (AID 1900); format: functional, organism-based
Streptokinase A = target: T2, Streptokinase A (Streptococcus pyogenes serotype M1, UniProt P10520); test: S. pyogenes streptokinase expression inhibitors, potency, dose response, plasminogen activation absorbance, OD405 (AID 1914); format: functional, Streptococcus pyogenes M1 GAS;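 also: secreted streptokinase activity via plasminogen activation per viability signal from cell pellet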
T2 sequence (P10520 whole entry): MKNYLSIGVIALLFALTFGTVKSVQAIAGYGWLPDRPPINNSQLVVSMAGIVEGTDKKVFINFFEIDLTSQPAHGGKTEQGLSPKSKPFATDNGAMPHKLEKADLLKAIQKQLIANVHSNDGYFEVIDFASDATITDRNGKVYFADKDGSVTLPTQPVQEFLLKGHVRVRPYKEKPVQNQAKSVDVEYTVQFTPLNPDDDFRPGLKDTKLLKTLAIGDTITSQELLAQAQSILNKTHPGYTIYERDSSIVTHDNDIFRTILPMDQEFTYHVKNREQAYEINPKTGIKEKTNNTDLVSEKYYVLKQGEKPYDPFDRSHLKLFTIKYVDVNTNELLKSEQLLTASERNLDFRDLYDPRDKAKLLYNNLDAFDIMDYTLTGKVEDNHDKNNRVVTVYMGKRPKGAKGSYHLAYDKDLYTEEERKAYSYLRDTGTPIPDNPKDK

Streptococcus = test: Group A Streptococcus viability loss, dose response, counter-screen for streptokinase expression inhibitor project, luminescence, BacTiterGlo (AID 1915); format: functional, organism-based;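 also: potency for reduction of bacterial viability or growth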
Cytochrome P450 2C9 = Cytochrome P450 2C9 (Homo sapiens, UniProt P11712)
Cytochrome P450 2C9, sequence (P11712 whole entry): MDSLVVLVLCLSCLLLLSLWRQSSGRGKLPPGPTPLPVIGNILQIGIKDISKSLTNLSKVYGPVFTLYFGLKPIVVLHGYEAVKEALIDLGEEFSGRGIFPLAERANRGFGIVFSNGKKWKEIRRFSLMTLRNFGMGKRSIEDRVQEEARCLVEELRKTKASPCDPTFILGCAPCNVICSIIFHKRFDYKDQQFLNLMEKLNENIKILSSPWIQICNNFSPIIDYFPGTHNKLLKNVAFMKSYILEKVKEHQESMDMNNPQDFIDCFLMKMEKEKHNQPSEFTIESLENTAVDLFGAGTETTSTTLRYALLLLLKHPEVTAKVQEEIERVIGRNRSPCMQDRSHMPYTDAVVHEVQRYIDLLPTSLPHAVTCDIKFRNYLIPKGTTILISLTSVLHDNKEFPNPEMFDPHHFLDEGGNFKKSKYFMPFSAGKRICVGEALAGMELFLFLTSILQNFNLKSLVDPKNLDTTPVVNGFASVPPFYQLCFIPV

Cytochrome P450 2C19, sequence (P33261 whole entry): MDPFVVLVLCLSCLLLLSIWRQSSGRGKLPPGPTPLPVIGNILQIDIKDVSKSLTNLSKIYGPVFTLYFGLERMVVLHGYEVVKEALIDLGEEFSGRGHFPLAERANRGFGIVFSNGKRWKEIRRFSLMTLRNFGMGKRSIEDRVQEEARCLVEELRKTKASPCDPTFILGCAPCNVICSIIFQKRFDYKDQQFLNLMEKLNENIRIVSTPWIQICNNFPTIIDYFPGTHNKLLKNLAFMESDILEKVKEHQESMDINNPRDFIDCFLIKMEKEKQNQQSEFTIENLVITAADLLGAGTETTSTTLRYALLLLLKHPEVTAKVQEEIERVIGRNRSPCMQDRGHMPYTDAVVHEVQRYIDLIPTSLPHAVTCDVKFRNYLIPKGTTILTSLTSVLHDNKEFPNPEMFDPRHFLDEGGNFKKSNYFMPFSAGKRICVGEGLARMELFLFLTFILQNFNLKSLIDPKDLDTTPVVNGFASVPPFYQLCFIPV
Cytochrome P450 3A4, sequence (P08684 whole entry): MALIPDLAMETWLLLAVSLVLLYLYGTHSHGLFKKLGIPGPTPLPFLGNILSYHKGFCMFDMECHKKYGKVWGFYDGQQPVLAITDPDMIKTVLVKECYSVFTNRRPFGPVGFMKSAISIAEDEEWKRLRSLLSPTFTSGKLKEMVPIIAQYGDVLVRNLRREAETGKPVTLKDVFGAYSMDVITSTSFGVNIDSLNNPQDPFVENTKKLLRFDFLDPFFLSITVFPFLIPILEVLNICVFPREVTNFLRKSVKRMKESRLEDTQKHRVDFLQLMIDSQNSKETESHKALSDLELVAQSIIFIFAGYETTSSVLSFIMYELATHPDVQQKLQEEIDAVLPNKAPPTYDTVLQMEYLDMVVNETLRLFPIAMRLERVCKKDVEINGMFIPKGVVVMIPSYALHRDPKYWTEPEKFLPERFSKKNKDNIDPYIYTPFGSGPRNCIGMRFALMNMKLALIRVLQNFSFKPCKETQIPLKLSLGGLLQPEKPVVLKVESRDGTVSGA

SMILES: Cc1ccsc1C(=O)C1CCCN(Cc2ccc(-n3cccn3)cc2)C1 (stereo unspecified)
- EC50 [1]: 0.201 µM (active)
- EC50 [2]: > 60 µM (inconclusive)

SMILES: COc1ncc2nc(-c3cc(F)cc(F)c3)c(=O)n(CCC#N)c2n1
- AC50 (Cytochrome P450 3A4): 20 µM (inconclusive)

SMILES: CCCC[C@@H]1CNC(=O)C(=O)N1CCc1cccc2ccccc12
- EC50 [3]: > 195 µM (not active)

SMILES: C[C@H](CCC(=O)NN)[C@@H]1CC[C@@H]2[C@H]3CC[C@H]4C[C@@H](O)CC[C@@]4(C)[C@@H]3CC[C@]21C
- AC50 (Cytochrome P450 2C19): 3.16 µM (inconclusive)

SMILES: CCO/C(O)=C1\C(C)=Nc2sc(C(=O)c3ccc(Br)cc3)c(N)c2C1c1ccc(C(=O)OC)cc1 (stereo unspecified)
- EC50 [1]: 1.09 µM (active)
- EC50 [2]: 15.8 µM (active)

SMILES: O=C(NCC1CCCO1)C(c1cccnc1)N(C(=O)Cc1cccs1)c1cccnc1 (stereo unspecified)
- AC50 (Cytochrome P450 2C19): 31.6 µM (inconclusive)

SMILES: CCCNC(=O)OC[C@@H]1O[C@H](CCO/N=C(\C)CCN2CCc3nc(-c4ccccc4)c(-c4ccccc4)cc3C2)C=C[C@@H]1Oc1ccc(OC)cc1
- AC50 (Cytochrome P450 2C19): 0.316 µM (inconclusive)

SMILES: CCn1c(SCC(=O)Nc2sc3c(c2C#N)CCCC3)nnc1-c1ccco1
- EC50 [1]: 1.89 µM (active)
- EC50 [2]: > 60 µM (inconclusive)

SMILES: CCOC(=O)c1ccc(NC(=O)c2[nH]cnc2C(=O)N[C@@H](Cc2ccccc2)C(=O)OC(C)(C)C)cc1
- EC50 [4]: 5.26 µM (active)
- EC50 (Streptokinase A): > 150 µM (not active)
- EC50 (Streptococcus): 44.9 µM (active)

SMILES: Cc1c(C#N)c(/N=C/N(C)C)c(C(=O)c2ccc(Br)cc2)n1-c1ccc(Cl)cc1
- EC50 [1]: 2.8 µM (active)
- EC50 [2]: > 60 µM (inconclusive)

SMILES: O=C(Nc1ccccc1Cc1ccccc1)c1ccncc1
- EC50 [1]: 0.802 µM (active)
- EC50 [2]: > 60 µM (not active)

SMILES: Cc1ccc(S(=O)(=O)n2c3ccccc3c3nnc(C(=O)c4ccccc4)nc32)cc1
- AC50 (Cytochrome P450 2C19): 0.0126 µM (inconclusive)
- AC50 (Cytochrome P450 2C9): 3.16 µM (inconclusive)

SMILES: Cc1cccc(C(=O)NC2CCN(C(=O)Nc3ccc(F)cc3)CC2)c1
- EC50 [3]: 32.7 µM (active)

SMILES: N#Cc1c(N)n(-c2ccccc2N)c2nc3ccccc3nc12
- EC50 [3]: 11.2 µM (active)

SMILES: CC[C@@]1(c2ccc(N)cc2)CCC(=O)NC1=O
- AC50 (Cytochrome P450 3A4): 12.6 µM (inconclusive) and 10 µM (inconclusive)

SMILES: Nc1ccccc1SCC(=O)Nc1ccc2c(c1)OCCO2
- EC50 [3]: > 195 µM (not active)

SMILES: COc1ccc(Cl)cc1C(=O)NNC(=S)NC(=O)c1ccc(F)c(F)c1
- EC50 [4]: 0.217 µM (active)
- EC50 (Streptococcus): 1.37 µM (active)

SMILES: COc1ccc(-c2oc(NC(=O)CSc3nc[nH]n3)c(C#N)c2-c2ccc(OC)cc2)cc1
- EC50 [4]: 2.37 µM (active)
- EC50 (Streptokinase A): 1.08 µM (active)
- EC50 (Streptococcus): 16 µM (active)

SMILES: O=C(c1ccc2c(c1)OCO2)C1CCCN(Cc2cccn2-c2cccnc2)C1 (stereo unspecified)
- EC50 [1]: 3.29 µM (active)
- EC50 [2]: > 60 µM (not active)

SMILES: Cc1cc(C)cc(NS(=O)(=O)c2ccc(NC(=S)NC(=O)c3cccs3)cc2)c1
- EC50 [4]: 4.5 µM (active)
- EC50 (Streptokinase A): 11.7 µM (active)
- EC50 (Streptococcus): 50.1 µM (active)

SMILES: Cc1ccccc1OCCC(=O)OCC(=O)N1c2ccccc2NC(=O)C1(C)C
- EC50 [3]: > 195 µM (not active)

SMILES: CS(=O)(=O)c1cccc(NC(=O)c2ccc(Cl)c(Cl)c2)c1
- EC50 [1]: 3.1 µM (active)
- EC50 [2]: > 30 µM (not active)

SMILES: COc1cccc(Nc2ncc3nc(-c4ccc(Cl)cc4)c(=O)n(C[C@H]4CCCO4)c3n2)c1
- AC50 (Cytochrome P450 3A4): 15.8 µM (inconclusive)

SMILES: O=C(CNCCc1ccc(F)cc1)Nc1cc(F)ccc1F
- EC50 [3]: > 195 µM (not active)

SMILES: CCC1CC(CSc2nc[nH]n2)OC1=O (stereo unspecified)
- AC50 (Cytochrome P450 2C9): 25.1 µM (inconclusive)

SMILES: CCCCCCN1N=C(C)C(C(=O)c2ccc(Cl)cc2)C1=O (stereo unspecified)
- EC50 [4]: 2.44 µM (active)
- EC50 (Streptokinase A): > 150 µM (not active)
- EC50 (Streptococcus): 29.5 µM (active)

SMILES: Fc1ccccc1N=C(S)Nc1ccc(CN2CCOCC2)cc1
- EC50 [3]: 68.4 µM (active)

SMILES: Cn1cccc1C(=O)N1CCC2(CCN(Cc3ccc(C#N)cc3)CC2)CC1
- AC50 (Cytochrome P450 2C19): 0.2 µM (inconclusive)

SMILES: CC(C)N1CCN(Cc2ccc3nsnc3c2)CC1CCO (stereo unspecified)
- EC50 [3]: > 195 µM (not active)
